Data on 3 molecules can be found in US7579343B2, “Pyrrolo-thiazines and processes for the preparation and use thereof” (Board of Trustees of Michigan State University, priority 2005, dated 2009).

Assay [1] has as its system β-ribosidase. Put plainly: β-ribosidase inhibition assay with DHF-riboside substrate, whole cells. The format is cell-based, Salmonella sp.35664. As for the experimental part: (§1) The hydrolysis of β-riboside under catalysis by β-ribosidases features an oxocarbenium ion transition state, similar to nucleoside hydrolases, nucleoside phosphorylases and related enzymes. The β-ribosidase inhibitory properties of 6, 7 and 8 were evaluated using 3′,4′-dihydroxyflavone-4′-β-D-ribofuranoside 16 (DHF-riboside) as the substrate and bacterial lysates or whole cells as the source of β-ribosidase. The hydrolysis of this chromogenic substrate can be catalyzed by β-ribosidases to release 3′,4′-dihydroxyflavone, which forms a highly colored chelate with iron.^23
(§2) Compounds 6-8 were evaluated for their ability to inhibit the action of β-ribosidases produced by Gram negative bacteria. There are no commercially available β-ribosidases and it is the usual course to use intrinsic ribosidase activities from actual bacteria or bacterial cell lysates. Ribosidase inhibition assays were performed using Salmonella sp.35664 to produce β-ribosidase enzymes. Both whole cells and lysed bacteria were tested. Ribosidase activity is indicated by a purple color formed by complexation of the freed phenol with ferric ions. FIGS. 7A and 7B are (7A) absorbance of the assay mixture produced by a lysate of Salmonella sp.35664 with 3′,4′-dihydroxyflavone-4′-β-D-ribofuranoside in the presence of 6 in concentrations from 0 to 15 μg/μL over a 24 hour period. (7B) Absorbance of the assay mixture in the presence of 7. Note that the differences in inhibition between the two are marginal at higher inhibitor concentrations. Note also that in both cases there is a threshold value of 0.9 μg/μL for the inhibitor concentration over which no inhibition is observed. The more inhibition of the enzyme, the less cleavage of the substrate.
In the case of compound 7, no inhibition is also observed for the 3.8 μg/μL inhibitor concentration. There are only minor differences for the inhibitory properties of the two compounds at the higher concentrations.
(§3) Inhibitory potency was determined by spectrophotometrically measuring the residual hydrolytic activities of the bacterial produced β-ribosidase 2. The bacterium used to produce β-ribosidase was Salmonella sp.35664, both whole cell and lysed strains. 3′,4′-Dihydroxyflavone-4′-β-D-ribofuranoside 15 (DHF-riboside) was used as substrate. The assay was performed in a PBS buffer at pH 7.0, 37° C. Serial dilutions were made of the inhibitors to a final concentration of 0.2μg/μL to 15μg/μL in each assay solution. The strain was grown to mid exponential phase and removed from the media and rediluted in PBS buffer. Inhibition studies were performed by adding each strain to the respective buffer solutions along with DHF-riboside, ferric ammonium citrate and inhibitors. For compound 6 and 7, 10% DMSO solution was used to increase the solubility. The solutions were incubated at 37° C. and the absorbance of the complex formed between released 3′,4′-dihydroxyflavone and iron was determined at 387 nm at time 15 min, 30 min, 45 min, 60 min, 75 min, 90 min, 105 min, 2 hours, 2.5 hours, 3.0. hours, 4.0. hours, 4.5 hours, 5 hours, 20 hours, and 24 hours.

Assay [2] addresses β-ribosidase. Put plainly: β-ribosidase inhibition assay with DHF-riboside substrate, bacterial lysate. Format: biochemical, Salmonella sp.35664. The settings on record: for threshold value for the inhibitor concentration over which no inhibition is observed: lysate of Salmonella sp.35664, DHF-riboside, over a 24 hour period. As to the method: as §1, §2, §3
The test system of the next assay is E. faecalis 29212. Put plainly: antibacterial activity, standard MIC testing procedure. The format is cell-based. As for the experimental part: (§4) It was assayed according to the standard MIC testing procedure for antimicrobials.
The next assay has as its system S. aureus 43300. Described as above. The format is cell-based. As to the method:
as §4

In another assay the test system is E. faecalis 51299. The description is as above. The format is cell-based. As to the method: as §4

What is called inhibition is the drop in the measured response relative to a control, in per cent.

Take `O[C@H]1[C@@H](O)CN2c3ccccc3SC[C@@H]12` [Compound 6, 2(S),3(R),4(S)-dihydroxy-2,3,3a,4-tetrahydro-1H-pyrrolo-[2,1-c][1,4]benzothiazine]: the “concentration at which fifty percent inhibition was observed” value in the assay with β-ribosidase [1] (whole cell) and on β-ribosidase [2] (lysate) was 7.5 µg/µL each time. For the same molecule, in the assay with β-ribosidase [1] (whole cell), the “β-ribosidase inhibition activity (in words)” value is listed as “good inhibitory activity”. In addition, the “inhibition of β-ribosidases” value is given as “About 70%” in the assay on β-ribosidase [1] (whole cell, 15 μg/μL (67 mM), at 24 hours) and “About 70%” in the assay with β-ribosidase [2] (lysate, 15 μg/μL (67 mM), at 24 hours). Moreover, in the assay on β-ribosidase [2], the “threshold value for the inhibitor concentration over which no inhibition is observed” value is 0.9 µg/µL.

As to `O[C@@H]1[C@H]2CSc3ccccc3N2C[C@@H]1O` [Compound 7, 2(R)-3(R),4(S)-dihydroxy-2,3,3a,4-tetrahydro-1H-pyrrolo-[2,1-c][1,4]benzothiazine], the “β-ribosidase inhibition activity (in words)” value in the assay with β-ribosidase [1] (whole cell) and with β-ribosidase [2] (lysate) was “comparable” each time. The “inhibition at 3.8 μg/μL inhibitor concentration” value in the assay with β-ribosidase [1] (whole cells, 3.8 μg/μL) was “no inhibition”. Also, in the assay on β-ribosidase [2], the “threshold value for the inhibitor concentration over which no inhibition is observed” value was determined as 0.9 µg/µL.

On to `O[C@H]1[C@@H](O)CN2CCSC[C@@H]12` [Compound 8, 7(S)-8(R),9(S)-dihydroxy-hexahydro-1H-pyrrolo-[1,4]-thiazine], for which the “β-ribosidase inhibition activity (in words)” value with β-ribosidase [1] (whole cell) and in the assay on β-ribosidase [2] (lysate) was “no significant inhibition” throughout. Further, the inhibition at 0.49 µg/mL amounted to 50% with E. faecalis 29212 (Enterococcus faecalis, 29212, 0.49 μg/ml, read-out: inhibition of bacterial growth); 70% with S. aureus 43300 (Staphylococcus aureus, 43300, 0.49 μg/ml, read-out: inhibition of bacterial growth); 50% with E. faecalis 51299 (Enterococcus faecalis, 51299, 0.49 μg/ml, read-out: inhibition of bacterial growth). The “antibacterial activity (in words)” value with E. faecalis 29212 (initial dilute concentration), in the assay on S. aureus 43300 (initial dilute concentration) and with E. faecalis 51299 (initial dilute concentration) was “good inhibition” each time.
